Assay results as given in ChEMBL document CHEMBL1131583, “Structure-based design and synthesis of lipophilic 2,4-diamino-6-substituted quinazolines and their evaluation as inhibitors of dihydrofolate reductases and potential antitumor agents” (J Med Chem, 1998).
pIC50: −log10 of the molar value.

Tests used:
Dihydrofolate reductase [1] = biological target: T1, Dihydrofolate reductase (Pneumocystis carinii, UniProt P16184)
T1 sequence (P16184 whole entry): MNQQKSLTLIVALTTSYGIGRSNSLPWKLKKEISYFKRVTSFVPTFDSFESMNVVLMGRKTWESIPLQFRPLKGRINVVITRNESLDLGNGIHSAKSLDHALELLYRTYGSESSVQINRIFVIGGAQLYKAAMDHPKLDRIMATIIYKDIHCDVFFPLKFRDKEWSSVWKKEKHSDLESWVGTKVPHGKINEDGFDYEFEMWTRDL
Description: Inhibitory activity against Dihydrofolate reductase from Pneumocystis carinii (pcDHFR)

[2] = biological target: T2, Bifunctional dihydrofolate reductase-thymidylate synthase (Toxoplasma gondii, UniProt Q07422)
T2 sequence (Q07422 whole entry): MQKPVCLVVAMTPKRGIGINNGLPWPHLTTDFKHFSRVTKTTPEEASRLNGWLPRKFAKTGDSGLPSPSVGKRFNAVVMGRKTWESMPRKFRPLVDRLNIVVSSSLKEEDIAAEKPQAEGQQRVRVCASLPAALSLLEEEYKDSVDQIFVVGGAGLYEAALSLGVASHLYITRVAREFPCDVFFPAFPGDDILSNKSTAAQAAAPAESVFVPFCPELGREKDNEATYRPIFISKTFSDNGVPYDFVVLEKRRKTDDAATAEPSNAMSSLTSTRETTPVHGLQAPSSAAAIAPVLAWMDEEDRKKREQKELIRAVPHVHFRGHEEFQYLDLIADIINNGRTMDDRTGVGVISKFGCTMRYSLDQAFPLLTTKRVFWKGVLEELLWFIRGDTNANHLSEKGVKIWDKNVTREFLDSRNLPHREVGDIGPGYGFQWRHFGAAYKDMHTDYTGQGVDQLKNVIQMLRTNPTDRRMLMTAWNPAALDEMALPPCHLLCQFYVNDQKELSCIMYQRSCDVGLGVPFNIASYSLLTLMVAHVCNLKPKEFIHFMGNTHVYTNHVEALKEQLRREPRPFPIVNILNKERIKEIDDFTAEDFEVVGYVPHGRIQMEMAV
Description: Inhibitory activity against Dihydrofolate reductase from Toxoplasma gondii (tgDHFR)

Dihydrofolate reductase [3] = biological target: T3, Dihydrofolate reductase (Lactobacillus casei, UniProt P00381); test: Inhibitory activity against Dihydrofolate reductase from Lactobacillus casei ( lcDHFR); set-up: species or system Lacticaseibacillus casei
Dihydrofolate reductase [4] = biological target: T4, Dihydrofolate reductase (Homo sapiens, UniProt P00374)
T4 sequence (P00374 whole entry): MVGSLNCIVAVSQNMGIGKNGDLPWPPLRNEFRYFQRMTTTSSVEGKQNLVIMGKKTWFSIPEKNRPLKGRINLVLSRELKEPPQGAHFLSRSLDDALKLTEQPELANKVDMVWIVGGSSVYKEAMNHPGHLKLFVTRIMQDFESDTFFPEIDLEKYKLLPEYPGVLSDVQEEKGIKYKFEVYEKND
Description: Inhibitory activity against Dihydrofolate reductase from recombinant human (hDHFR)

[5] = biological target: T2, Bifunctional dihydrofolate reductase-thymidylate synthase; test: Inhibition of recombinant Dihydrofolate reductase from Toxoplasma gondii (tgDHFR)
Dihydrofolate reductase [6] = biological target: T5, Dihydrofolate reductase (Rattus norvegicus, UniProt Q920D2); test: Inhibitory activity against Dihydrofolate reductase from rat liver (rlDHFR)
T5 sequence (Q920D2 whole entry): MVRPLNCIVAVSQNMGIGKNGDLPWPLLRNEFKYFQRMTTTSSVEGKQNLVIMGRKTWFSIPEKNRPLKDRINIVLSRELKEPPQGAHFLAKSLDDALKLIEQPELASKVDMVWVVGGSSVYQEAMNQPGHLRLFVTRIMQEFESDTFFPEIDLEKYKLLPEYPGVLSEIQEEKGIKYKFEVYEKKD

Dihydrofolate reductase [7] = biological target: T3, Dihydrofolate reductase
Description: Inhibitory activity against Dihydrofolate reductase from Lactobacillus casei (lcDHFR)

[8] = biological target: T2, Bifunctional dihydrofolate reductase-thymidylate synthase; test: Inhibitory activity against recombinant Dihydrofolate reductase from Toxoplasma gondii (tgDHFR)
[9] = Partition coefficient (logP); assay type: physicochemical; conditions: octanol/water

T3 sequence (P00381 whole entry): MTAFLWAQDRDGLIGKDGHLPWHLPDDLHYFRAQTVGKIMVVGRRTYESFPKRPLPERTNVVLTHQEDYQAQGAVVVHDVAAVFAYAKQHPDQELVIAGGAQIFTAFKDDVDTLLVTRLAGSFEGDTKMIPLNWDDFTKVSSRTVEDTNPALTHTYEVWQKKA

Row | Compound | pIC50 (Dihydrofolate reductase [1]) | pIC50 [2] | pIC50 (Dihydrofolate reductase [3]) | pIC50 (Dihydrofolate reductase [4]) | pIC50 [5] | pIC50 (Dihydrofolate reductase [6]) | pIC50 (Dihydrofolate reductase [7]) | pIC50 [8] | logP [9]
1 | COc1cc(CN(C)c2ccc3nc(N)nc(N)c3c2)cc(OC)c1 | 7.62 | 8.03 | 7.43 | 7.96 | 8.33 | 8.09 |  |  | 
2 | COc1cc(CNc2ccc3nc(N)nc(N)c3c2)cc(OC)c1OC | 5.17 | 7.08 |  | 4.64 | 6.04 | 6.05 | 5.55 |  | 
3 | COc1cc(OC)c(CNc2ccc3nc(N)nc(N)c3c2)c(OC)c1 | 3.94 |  |  | 4.60 |  | 4.64 | 4.43 |  | 
4 | CN(Cc1cccc2c1CCCC2)c1ccc2nc(N)nc(N)c2c1 | 7.77 |  |  | 7.57 |  | 7.77 | 7.68 |  | 
5 | COc1cc(OC)c(OC)cc1CNc1ccc2nc(N)nc(N)c2c1 | 5.27 | 6.91 |  |  | 6.27 | 5.80 | 5.80 |  | 
6 | Nc1nc(N)c2cc(NCc3ccccc3)ccc2n1 | 5.06 | 6.49 |  | 5.62 |  | 6.18 | 5.57 | 5.85 | 
7 | COc1ccc(CN(C)c2ccc3nc(N)nc(N)c3c2)c(OC)c1 | 7.00 | 7.41 |  | 7.30 | 8.41 | 7.37 | 6.92 |  | 
8 | COc1ccc(CNc2ccc3nc(N)nc(N)c3c2)c(OC)c1 | 5.36 | 6.77 |  |  | 6.11 | 5.92 | 5.68 |  | 
9 | COc1ccc(CNc2ccc3nc(N)nc(N)c3c2)c(OC)c1OC | 5.31 | 6.72 |  | 4.57 | 6.09 | 5.89 | 5.70 |  | 
10 | COc1cc(CNc2ccc3nc(N)nc(N)c3c2)cc(OC)c1 | 5.66 | 6.92 |  | 4.55 | 6.08 | 6.08 | 5.64 |  | 
11 | COc1ccc(OC)c(CNc2ccc3nc(N)nc(N)c3c2)c1 | 5.34 | 6.80 |  | 4.55 | 5.96 | 5.96 | 5.52 |  | 
12 | COc1ccc(CN(C)c2ccc3nc(N)nc(N)c3c2)c(OC)c1OC | 7.28 | 7.77 |  | 6.85 | 8.27 | 7.72 | 7.23 |  | 
13 | COc1ccc(OC)c(CN(C)c2cnc3nc(N)nc(N)c3c2)c1 |  |  |  |  |  |  |  |  | 1.87
14 | COc1ccc(OC)c(CN(C)c2ccc3nc(N)nc(N)c3c2)c1 | 7.06 | 7.52 | 6.89 |  | 8.41 |  |  |  | 
15 | COc1ccc(OC)c(CNc2cnc3nc(N)nc(N)c3c2)c1 |  |  |  |  |  |  |  |  | 1.32
16 | COc1cc(CNc2cnc3nc(N)nc(N)c3c2)cc(OC)c1OC |  | 6.40 |  |  |  |  |  |  | 0.89
17 | COc1cc(CN(C)c2cnc3nc(N)nc(N)c3c2)cc(OC)c1 |  |  |  |  |  |  |  |  | 1.87
18 | COc1cc(NCc2ccc3nc(N)nc(N)c3c2C)cc(OC)c1OC [TRIMETREXATE] |  |  |  |  |  |  | 6.59 |  | 
